The results in this text go back to publication PMC9686989, “Exploration of Molecular Structure, DFT Calculations, and Antioxidant Activity of a Hydrazone Derivative” (Antioxidants, 2022).

Series [1] in a line: ABTS antioxidant assay (radical scavenging). The following applies: radical cation ABTS•+ in methanol, 60 min in the dark, absorbance at 745 nm, triplicate. As for the experimental part: (§1) The antioxidant activity of compound 2 was measured using ABTS antioxidant assay and DPPH radical scavenging assay using ascorbic acid and quercetin as standard compounds. The antioxidant activity of compound 1 was not determined here, as it was isolated as a by-product in trace amounts. Furthermore, this compound is reported, and thus, it was believed unnecessary to pursue its antioxidant capacity.
Equal amounts of 7 mM ABTS (2,2′-azino-bis(3-ethylbenzothiazoline-6-sulphonic acid)) stock solution and 2.45 mM potassium persulfate stock solution were mixed and stored at 0 °C for 12 h in the dark to produce the radical cation ABTS^•+. The prepared radical cation ABTS^•+ solution was diluted with methanol so that the UV absorption value was below 1.000 at 745 nm. The compound 2 and reference standards, including ascorbic acid and quercetin, were dissolved in methanol to obtain 2000 µM stock solutions. Then, these solutions were diluted with methanol to 1000, 500, 250, 125, 62.5, 31.3, 15.6, 7.81, 3.91, 1.95, 0.977, 0.488, 0.244, 0.122, and 0.0610 µM solutions. Then, 0.9 mL of the ABTS^•+ solution and 0.1 mL of solutions of compound 2 or standard materials prepared above were mixed in a test tube and kept in the dark for 60 min. After 60 min incubation, the UV absorption at 745 nm was measured. All experiments were performed in triplicate. The radical scavenging rates were obtained from these UV absorption data, and the resulting IC50 values were calculated using Origin 8 (Northampton, MA, USA). Percentage (%) of ABTS radical scavenging = [(A0 − A1)/A0] × 100(1) where A0 was the absorbance of the control, and A1 was the absorbance of the treated sample.

Series [2] is described as follows: DPPH radical scavenging assay. The conditions noted are these: DPPH in methanol, 30 min in the dark, absorbance at 517 nm, triplicate. The method, then:
as §1
The 100 µM DPPH stock solution was prepared in absolute methanol. The 2.0 mM stock solutions of compound 2 and the reference standards ascorbic acids and quercetin were also prepared in absolute methanol. Then, these solutions were diluted with methanol to 1000, 500, 250, 100, 50, 25, 12.5, 6.25, 3.13, 1.56, 0.781, 0.391, 0.195, 0.0977, 0.0488, 0.0244, and 0.0122 µM solutions. Afterwards, 0.7 mL of the DPPH solution and 0.7 mL of solutions of compound 2 or standard materials prepared above were mixed in a test tube and kept in the dark for 30 min. After 30 min incubation, the UV absorption at 517 nm was measured. All experiments were performed in triplicate. The radical scavenging rates were obtained from these UV absorption data, and the resulting IC50 values were calculated using Origin 8. Percentage (%) of DPPH radical scavenging = [(A0 − A1)/A0] × 100(2) where A0 was the absorbance of the control, and A1 was the absorbance of the treated sample.

In a further series the test system is A549 cells. The series can be described thus: Cell cytotoxicity assay (MTT). It counts as cell-based. The method, then:
The A549 cells ([…]) were used in the cytotoxicity assay (MTT (3-(4,5-dimethylthiazol-2-yl)-2,5-diphenyltetrazolium bromide) assay) of compound 2. The A549 cells were grown in an incubator at 37 °C and 5% CO2 using DMEM media containing 2 mM glutamine and 10% FBS. Cells were trypsinized for seeding at 70–90% of cell confluency. About 7000 A549 cells per well were seeded in 96-well plates and incubated for 24 h at 37 °C in the presence of 5% CO2. Then, the media was replaced with the media containing compound 2 at various concentrations, including 0.1, 10, 25, and 50 µM, and incubated for another 24 h. Dimethyl sulfoxide (DMSO) was used as a vehicle. […] After 24 h incubation, the media was replaced with 200 µL of fresh media containing MTT solution and incubated for four hours at 37 °C. The absorbance was recorded at 570 nm to evaluate the cell viability. Each experiment was executed three times. Origin software was used for the data analysis.

In general, IC50 refers to the concentration at which inhibition is half-maximal. Higher therefore signals a need for much substance. For `O=C1O[C@H]([C@@H](O)CO)C(O)=C1O` [Ascorbic acid, ascorbic acid], the IC50 in series [1] was 13.2 ± 0.45 µM; in series [2], 28.7 ± 0.65 µM.
As to `C/C(=N\N=C(/C)c1ccc(O)cc1O)c1ccc(O)cc1O` [Compound 2, 4,4′-((1E,1′E)-hydrazine-1,2-diylidenebis(ethan-1-yl-1-ylidene))bis(benzene-1,3-diol)], the “decrease in cell growth compared to the control” value in the series with A549 cells (24 h treatment, 50 µM, MTT, DMSO control) is recorded as about 40%. Moreover, the “cytotoxicity (cell death)” value in the series with A549 cells (24 h treatment, 0.1–25 µM, MTT, DMSO control) was “did not show significant cell death”. In addition, the cell cytotoxicity entry with A549 cells (at 25 µM) is given as “did not show any cell cytotoxicity”. Moreover, the cytotoxicity entry in the series with A549 cells (below 25 µM) is “almost no cytotoxicity”. Further, the IC50 in series [1] was 4.3 ± 0.21 µM; in series [2], 81.06 ± 0.72 µM.
As to `O=c1c(O)c(-c2ccc(O)c(O)c2)oc2cc(O)cc(O)c12` [Quercetin, quercetin], the results for the IC50 in series [1] and in series [2] were 3.57 ± 0.54 µM and 4.02 ± 0.058 µM, respectively.
